What was measured:
[1] = target: wild-type MphR (MphR(A), macrolide biosensor transcription factor), SEQ ID NO: 2 (gene SEQ ID NO: 1, 28) (Escherichia coli, UniProt Q9EVJ6); test: cell-based; conditions: for activation of GFP expression under control of WT MphR: result in words
Text: (§1) The sensitivity of biosensors often requires tailoring to meet specific needs. […] A library of MphR gene mutations and variants was created by error-prone PCR (epPCR).
Molecular Biosystems. […] Previous literature reports various induction ranges for MphR-based biosensors depending on the plasmid construct.
Three and five site saturation mutagenesis libraries of the MphR gene that targeted residues of the ligand binding domain were generated using the Quikchange Multi Site-Directed mutagenesis kit (Agilent) and designated QCMS3 and QCMS5, respectively. A third library was generated via error-prone PCR (epPCR) with an average of two amino acid mutations per library clone. Libraries were transformed into E. coli TOP10 cells with plasmid pJZ12 (See FIG. 16 and sequence below) containing genes MphA and mrx and subjected to an initial round of negative sorting in the absence of added ligand via Fluorescence Activated Cell Sorting (FACS) to eliminate variants that are constitutively expressing GFP.
In Table 1, Hill functions were used to derive biosensor transfer functions. K1/2 is the inducer concentration at half maximal induction. Cooperativity is derived from the Hill function to indicate cooperative ligand binding between protein monomers of the MphR dimer. […] The linear range of detection is the linear portion of the dose-response curve with a slope R^2=0.95 or higher.

[2] = target: MphR variant S106F (pikB1, D3; SEQ ID NO: 10, 38) (Escherichia coli, UniProt Q9EVJ6, S106F); test: cell-based; type: cell-based; conditions: for times more sensitive vs. WT: Table 11
Text: as §1
To test this, the aglycone 6-deoxyerythronolide B (6dEB) was produced via an engineered E. coli strain and purified by flash chromatography. […] To extend this to other systems, the ability of MphR was examined to detect macrolide antibiotics from S. venezuelae.
The ability of the MphR clone “PikB1” to detect a Solithromycin biosynthetic intermediate (see structure below) was determined.

[3] = target: T1, MphR variant A16T/T154M/M155K (M2D6; SEQ ID NO: 16, 44) (Escherichia coli, UniProt Q9EVJ6, A16T/M155K/T154M); test: MphR-GFP biosensor dose-response, M2D6; type: cell-based; conditions: result in words
T1 construct: GFP under PmphR as reporter
Text: In many cases, it is necessary to determine the presence and concentration of a given polyketide in the presence of other structurally related molecules. Accordingly, the selectivity of MphR requires tailoring towards target molecules.

[4] = target: T2, MphR variant A16T/T154M/M155K with E7 RBS mutation (M2D6-E7RBS) (Escherichia coli, UniProt Q9EVJ6, A16T/M155K/T154M); test: MphR-GFP biosensor dose-response, M2D6-E7RBS; type: cell-based
T2 construct: E. coli GFP biosensor

MphR variant R122T = MphR variant R122T (Escherichia coli, UniProt Q9EVJ6, R122T); test: MphR-GFP biosensor dose-response, R122T; type: cell-based; conditions: for Hill coefficient: Table 8
[5] = target: T3, MphR variant G76C (clone A3/epA3; nt A1G in RBS, aa G76C; SEQ ID NO: 3, 29) (Escherichia coli, UniProt Q9EVJ6, G76C); test: MphR-GFP biosensor dose-response, clone G76C (A3); type: cell-based; conditions: Table 1
T3 construct: pMLGFP-derived plasmid, E. coli TOP10 GFP biosensor
Text: (§2) K1/2 is the inducer concentration at half maximal induction. Cooperativity is derived from the Hill function to indicate cooperative ligand binding between protein monomers of the MphR dimer. Dynamic range is the GFP maximal response minus the minimum GFP response, which in all cases was the response with no ligand. The linear range of detection is the linear portion of the dose-response curve with a slope R^2=0.95 or higher.

[6] = system: MphR variant G76C (clone A3/epA3; nt A1G in RBS, aa G76C; SEQ ID NO: 3, 29); test: MphR-GFP biosensor dose-response, clone G76C (A3); type: cell-based, Escherichia coli; conditions: Table 11
Text: as §2

[7] = target: T4, MphR variant V90I (clone E7/epE7; nt A4T in RBS, aa V90I; SEQ ID NO: 4, 30) (Escherichia coli, UniProt Q9EVJ6, V90I); test: MphR-GFP biosensor dose-response, clone V90I (E7); type: cell-based; conditions: Table 1
T4 construct: E. coli TOP10 with pJZ12
Text: as §2

[8] = system: MphR variant V90I (clone E7/epE7; nt A4T in RBS, aa V90I; SEQ ID NO: 4, 30); test: MphR-GFP biosensor dose-response, clone V90I (E7); type: cell-based, Escherichia coli; conditions: Table 11
Text: as §2

[9] = target: T5, MphR variant T17R (QCMS3D6; SEQ ID NO: 6, 34) (Escherichia coli, UniProt Q9EVJ6, T17R); test: MphR-GFP biosensor dose-response, clone T17R; type: cell-based
T5 construct: E. coli TOP10 GFP biosensor
Text: (§3) In Table 1, Hill functions were used to derive biosensor transfer functions. K1/2 is the inducer concentration at half maximal induction. Cooperativity is derived from the Hill function to indicate cooperative ligand binding between protein monomers of the MphR dimer. Dynamic range is the GFP maximal response minus the minimum GFP response, which in all cases was the response with no ligand. The linear range of detection is the linear portion of the dose-response curve with a slope R^2=0.95 or higher.

[10] = target: T6, MphR variant T27G/Q65M (QCMS5B4; SEQ ID NO: 8, 36) (Escherichia coli, UniProt Q9EVJ6, Q65M/T17G); test: MphR-GFP biosensor dose-response, clone T27G/Q65M; type: cell-based
T6 construct: E. coli TOP10 cells with plasmid pJZ12
Text: as §3

[11] = target: T7, MphR variant T27A/M59E (QCMS5D7; SEQ ID NO: 9, 37) (Escherichia coli, UniProt Q9EVJ6, M59E/T17A); test: MphR-GFP biosensor dose-response, clone T27A/M59E; type: cell-based; conditions: Table 1
T7 construct: E. coli TOP10 GFP biosensor
Text: as §3

[12] = system: MphR variant T27A/M59E (QCMS5D7; SEQ ID NO: 9, 37); test: MphR-GFP biosensor dose-response, clone T27A/M59E; type: cell-based, Escherichia coli; conditions: Table 11
Text: as §3

[13] = target: T8, wild-type MphR with RBS mutations A1T/G2T/A3C (smRBS1A1, RBS TTCAGGT; SEQ ID NO: 53) (Escherichia coli, UniProt Q9EVJ6); test: MphR-GFP biosensor dose-response, smRBS1A1; type: cell-based
T8 construct: GFP reporter in E. coli
Text: as §1

[14] = target: T9, wild-type MphR with mutated RBS CTGAGGT (smRBS1G6) (Escherichia coli, UniProt Q9EVJ6); test: MphR-GFP biosensor dose-response, smRBS1G6; type: cell-based; conditions: Table 4
T9 construct: GFP reporter in E. coli
Text: as §1

[15] = target: T10, wild-type MphR with mutated RBS AAAGGTT (smRBS2E1; SEQ ID NO: 55) (Escherichia coli, UniProt Q9EVJ6); test: MphR-GFP biosensor dose-response, smRBS2E1; type: cell-based; conditions: Table 4
T10 construct: GFP reporter in E. coli
Text: as §1

[16] = target: T11, wild-type MphR with E7 ribosome binding site mutation only (WT E7-RBS; SEQ ID NO: 32) (Escherichia coli, UniProt Q9EVJ6); test: cell-based
T11 construct: GFP reporter in E. coli
Text: as §1
To confirm this, new versions of A3 and E7 were constructed that either only included the RBS mutations or the amino acids for each clone.

**Q.** Which “activation of GFP expression under control of WT MphR” value (from here on “activation of GFP expression”) [1] does the source give for `CC[C@H]1OC(=O)[C@H](C)[C@@H](O)[C@H](C)[C@@H](O)[C@@H](C)C[C@@H](C)C(=O)[C@H](C)[C@@H](O)[C@H]1C` [Compound 6dEB, 6-deoxyerythronolide B] here?
**A.** failed to activate GFP expression

**Q.** Which results are given for `CC[C@H]1OC(=O)[C@H](C)[C@@H](O)[C@@H](C)C[C@@H](C)C(=O)/C=C/[C@H]1C` [Compound 10-DML, 10-deoxymethynolide]?
**A.** activation of GFP expression under control of WT MphR [1]: neither WT or D3 MphR is activated; activation ([2]; result in words, FIG. 4C): neither WT or D3 MphR is activated

**Q.** With `CC[C@H]1OC(=O)[C@H](C)[C@@H](O[C@H]2C[C@@](C)(OC)[C@@H](O)[C@H](C)O2)[C@H](C)[C@@H](O[C@@H]2O[C@H](C)C[C@H](N(C)C)[C@H]2O)[C@](C)(OC)C[C@@H](C)C(=O)/C(C)=C/[C@]1(C)O` [Solithromycin biosynthetic intermediate] as the compound, how does the EC50 ([1]; K1/2, FIG. 20) read?
**A.** 70.9 µM

**Q.** And the “detects the intermediate at concentrations as low as” value ([2]; FIG. 20)?
**A.** 0.1 µM

**Q.** What about the “times more sensitive vs. WT” value [2] of the same compound?
**A.** 52 times more

**Q.** `CC[C@H]1OC(=O)[C@H](C)[C@@H](O[C@@H]2O[C@H](C)C[C@H](N(C)C)[C@H]2O)[C@@H](C)C[C@@H](C)C(=O)/C=C/[C@H]1C` [YC-17] was tested. Which EC50 ([1]; K1/2, Table 12) did it give?
**A.** 19.6 ± 0.6 µM

**Q.** And the EC50 [2]?
**A.** 0.49 ± 0.05 µM

**Q.** And the “times more sensitive vs. WT” value [2]?
**A.** 40 times more

**Q.** With `CC[C@H]1OC(=O)[C@H](C)[C@@H](O[C@H]2C[C@@](C)(OC)[C@@H](O)[C@H](C)O2)[C@H](C)[C@@H](O[C@@H]2O[C@H](C)C[C@H](N(C)C)[C@H]2O)[C@](C)(O)C[C@@H](C)CN(C)[C@H](C)[C@@H](O)[C@]1(C)O` [azithromycin] as the compound, how does the EC50 ([1]; K1/2, Table 6) read?
**A.** 0.6 ± 0.02 µM

**Q.** And the EC50 ([1]; K1/2, Table 7)?
**A.** 0.6 µM

**Q.** What about the activation [3] of the same compound?
**A.** little to no activation

**Q.** Which results are given for `CC[C@H]1OC(=O)[C@H](C)[C@@H](O[C@H]2C[C@@](C)(OC)[C@@H](O)[C@H](C)O2)[C@H](C)[C@@H](O[C@@H]2O[C@H](C)C[C@H](N(C)C)[C@H]2O)[C@](C)(OC)C[C@@H](C)C(=O)[C@H](C)[C@@H](O)[C@]1(C)O` [clarithromycin, 6-O-methylerythromycin]?
**A.** EC50 [4]: 12.7 µM; EC50 (MphR variant R122T): 24.2 µM; Hill coefficient (MphR variant R122T): 3.03

**Q.** Which results are given for `CC[C@H]1OC(=O)[C@H](C)[C@@H](O[C@H]2C[C@@](C)(OC)[C@@H](O)[C@H](C)O2)[C@H](C)[C@@H](O[C@@H]2O[C@H](C)C[C@H](N(C)C)[C@H]2O)[C@](C)(O)C[C@@H](C)C(=O)[C@H](C)[C@@H](O)[C@]1(C)O` [erythromycin A]?
**A.** Cooperativity ([1]; Table 1, derived from the Hill function): 4.44 ± 1.52; Hillc ([1]; Table 4): 3.6 ± 0.3; Hill coefficient ([1]; Table 8): 3.52; Cooperativity ([1]; Table 9): 3.39; activation of GFP expression under control of WT MphR [1]: good activator; Cooperativity [5]: 1.80 ± 0.01; times more sensitive vs. WT [6]: 3.6 times more; Cooperativity [7]: 2.84 ± 0.42; times more sensitive vs. WT [8]: 3.0 times more; Cooperativity ([9]; Table 1): 3.16 ± 0.13; times more sensitive vs. WT ([9]; Table 11): 2.4 times more; Cooperativity ([10]; Table 1): 2.92 ± 0.17; times more sensitive vs. WT ([10]; Table 11): 1.5 times more; Cooperativity [11]: 2.59 ± 0.04; times more sensitive vs. WT [12]: 2.0 times more; Hillc ([13]; Table 4): 1.7 ± 0.1; times more sensitive vs. WT ([13]; Table 11): 9.9 times more; Hillc [14]: 5.4 ± 1.2; Hillc [15]: 3.9 ± 0.5; enhanced sensitivity [4]: 2 fold; Hill coefficient (MphR variant R122T): 2.39

**Q.** Which EC50 ([1]; K1/2, Table 9) does the source give for `CC[C@H]1OC(=O)[C@H](C)[C@@H](O[C@H]2C[C@@](C)(OC)[C@@H](O)[C@H](C)O2)[C@H](C)[C@@H](O[C@@H]2O[C@H](C)C[C@H](N(C)C)[C@H]2O)[C@](C)(O)C[C@@H](C)C(=O)[C@H](C)[C@@H](O)[C@H]1C` [erythromycin B] here?
**A.** 1.72 µM

**Q.** What about the Cooperativity ([1]; Table 9) of the same compound?
**A.** 1.99

**Q.** What about the “activation of GFP expression” value [1] of the same compound?
**A.** activate MphR-WT in a nearly identical manner

**Q.** For `CC[C@H]1OC(=O)[C@H](C)[C@@H](O[C@H]2C[C@@](C)(O)[C@@H](O)[C@H](C)O2)[C@H](C)[C@@H](O[C@@H]2O[C@H](C)C[C@H](N(C)C)[C@H]2O)[C@](C)(O)C[C@@H](C)C(=O)[C@H](C)[C@@H](O)[C@]1(C)O` [erythromycin C], which “activation of GFP expression” value [1] is on record?
**A.** activate MphR-WT in a nearly identical manner

**Q.** How did the fold induction at 5 µM ([1]; read-out: Activation ratio (5 uM/0 uM)) turn out when `CC[C@H]1OC(=O)[C@H](C)C(=O)[C@H](C)[C@@H](O[C@@H]2O[C@H](C)C[C@H](N(C)C)[C@H]2O)[C@@H](C)C[C@@H](C)C(=O)/C=C/[C@H]1C` [narbomycin] was run?
**A.** 4

**Q.** With `CC[C@H]1OC(=O)[C@H](C)C(=O)[C@H](C)[C@@H](O[C@@H]2O[C@H](C)C[C@H](N(C)C)[C@H]2O)[C@@H](C)C[C@@H](C)C(=O)/C=C/[C@]1(C)O` [pikromycin] as the compound, how does the EC50 ([1]; K1/2, Table 5) read?
**A.** 97 ± 2 µM

**Q.** What about the EC50 ([1]; K1/2, Table 14) of the same compound?
**A.** 96.6 ± 2.7 µM

**Q.** What about the EC50 [16] of the same compound?
**A.** 50 ± 20 µM

**Q.** And the EC50 [13]?
**A.** 48 ± 5 µM

**Q.** What about the “sensitivity improved, compared to the wild-type MphR” value [13] of the same compound?
**A.** 2 fold

**Q.** What about the EC50 [2] of the same compound?
**A.** 0.81 ± 0.02 µM

**Q.** What about the “times more sensitive vs. WT” value [2] of the same compound?
**A.** 118 times more

**Q.** What does the source list for `CC[C@H]1OC(=O)[C@H](C)[C@@H](O[C@H]2C[C@@](C)(OC)[C@@H](O)[C@H](C)O2)[C@H](C)[C@@H](O[C@@H]2O[C@H](C)C[C@H](N(C)C)[C@H]2O)[C@](C)(O)C[C@@H](C)/C(=N\OCOCCOC)[C@H](C)[C@@H](O)[C@]1(C)O` [roxithromycin]?
**A.** EC50 ([1]; K1/2, Table 6): 67.2 ± 3.41 µM; EC50 ([1]; K1/2, Table 7): 74.1 µM; activation [3]: little to no activation

— patent US12091718B2, “Genetically encoded biosensors for detection of polyketides” (priority 2016, dated 2024)
